The record followed here is US9296778B2, “3′,5′-cyclic phosphate prodrugs for HCV infection” (Idenix Pharmaceuticals, Inc., priority 2012, dated 2016).

SMILES strings stand for the structures. Where two headings read alike, the source gives them in different places. Bounds are passed on as bounds.

As a reminder, the EC50 is the concentration at which the effect is half-maximal. Usually CC50 stands for the concentration giving 50% cytotoxicity. Read a high CC50 as lower toxicity to the cells.

In one data set the test system is HCV genotype 1b replicon. In words: HCV Replicon Assay. The data set is classed as cell-based. Conditions: Hepatitis C virus, 72 h, read-out: HCV Replicon EC50. The method in brief:
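Zluc Huh-7 cells with HCV genotype 1b replicon and luciferase reporter treated with 5-fold dilutions (100 μM to 0.0000512 μM final) in duplicate, or at 1 and 10 μM. Luminescence read with ONE-glo; EC50 from dose-response fits, or % inhibition at the fixed concentrations.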
On the technique in general: In antiviral work, replicon cells carry a viral genome segment that copies itself.

A short description of data set [1]: cytotoxicity evaluation (CellTiter-Blue Cell Viability Assay). To be noted: human.
A further data set relates to Huh-7 cells. In words: Release of active metabolite in Huh-7 cells. To be noted: Huh-7 cells, AUC0-72. The data set is classed as in vitro ADME, human. The method, then: Huh-7 cells were plated in 1 mL culture medium (DMEM, containing glucose, L-glutamine and sodium pyruvate, 10% FBS, 100 IU/mL penicillin, 100 μg/mL streptomycin, 2 mM GlutaMAX, 1% MEM non-essential amino acids) at the concentration 0.8, 0.4 and 0.2 million cells per well on 6 well plates for 24, 48 and 72 hr treatment, respectively. Plated cells were incubated overnight at 37° C. in an incubator.
The following morning compounds was diluted to 20 μM from a stock solution in DMSO in fresh culture medium pre-warmed to 37° C. and 1 mL of the solution/well was added to cells. A final medium volume per well was 2.0 mL, Compound concentration in well was 10 μM and final DMSO concentration was 0.1%.
After 24, 48 or 72 hr, the medium was carefully removed and cell monolayers were washed twice with 2 mL ice-cold PBS per well. Following the last wash, all PBS was carefully removed and 1.0 mL of extraction solution (ice-cold 70% methanol) added. The plate was tightly covered with Parafilm, plastic plate cover and Parafilm again and an intracellular content was extracted at −20° C. for 24 hr.
After 24 hr extracts were transferred into polypropylene microfuge tubes and dried on a refrigerated centrivap concentrator. Dry residues were reconstituted in 250 μL of HPLC-grade water and centrifuged at 16,000×g for 10 min. Aliquots (100 μL each) of the supernatants were transferred into a 96 well plate and internal standard (4 ng/mL final concentration) was added as the internal standard (IS) for LC-MS/MS analysis.

The target of a further data set is T1, cathepsin A (CatA) (Homo sapiens, UniProt P10619).
T1 construct: purchased R & D Systems (Minneapolis, Minn.)
T1 sequence (P10619 29-326 limits assumed): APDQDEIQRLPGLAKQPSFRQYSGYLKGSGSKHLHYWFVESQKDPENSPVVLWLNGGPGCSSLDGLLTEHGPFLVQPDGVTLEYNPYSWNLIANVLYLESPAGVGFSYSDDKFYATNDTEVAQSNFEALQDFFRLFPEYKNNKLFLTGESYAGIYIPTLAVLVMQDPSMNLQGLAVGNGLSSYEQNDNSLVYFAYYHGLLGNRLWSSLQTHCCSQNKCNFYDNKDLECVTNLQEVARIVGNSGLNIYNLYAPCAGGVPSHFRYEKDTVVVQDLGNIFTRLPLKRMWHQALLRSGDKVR
T1 sequence (P10619 327-480 limits assumed): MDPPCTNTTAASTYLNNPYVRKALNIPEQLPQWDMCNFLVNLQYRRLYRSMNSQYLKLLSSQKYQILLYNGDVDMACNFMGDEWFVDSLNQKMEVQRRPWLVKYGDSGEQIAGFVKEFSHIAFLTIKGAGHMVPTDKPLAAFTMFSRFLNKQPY
In words: CatA hydrolysis assay. The class given is in vitro ADME. Conditions: for CatA hydrolysis: 100 μM compound, 37° C., 18 h. As for the experimental part:
CatA, cathepsin L (CatL) and CES1 were purchased from R & D Systems (Minneapolis, Minn.). Prior to the enzymatic hydrolysis reactions, CatA was activated according to the manufacturer's instruction. Briefly, CatA (0.05 μg/μL) was incubated with CatL (0.005 μg/μL) for 30 min at 37° C. in 25 mM MES pH 6.0 containing 5 mM DTT. The reaction was stopped by addition of the CatL specific inhibitor E64 (10 μM).
The CatA assay was performed at 37° C. The reaction mixture contained 25 mM MES buffer pH 6.0, 100 mM NaCl, 4 mM DTT and 100 μM of the compound. The reaction was started by addition of the activated CatA enzyme to a final concentration of 0.005 μg/μL. One hundred-μL aliquots were taken after 0.5 min, 3 hrs and 18 hrs of incubation. Reactions were stopped by mixing the sample with an equal volume of ice-cold methanol, and were loaded on a HPLC for analysis.
(§1) Samples were analyzed by HPLC using 5μ C-18, 4.6×250 mm Phenomenex® Columbus column (Phenomenex USA, CA). The mobile phase consisted of buffer A (25 mM potassium phosphate with 5 mM tetrabutylammonium dihydrogen phosphate pH 6.3) and buffer B (100% methanol).

For data set [2], the target named is T2, carboxylesterase 1 (CES1) (Homo sapiens, UniProt P23141).
T2 construct: purchased R & D Systems (Minneapolis, Minn.)
T2 sequence (P23141 18-567): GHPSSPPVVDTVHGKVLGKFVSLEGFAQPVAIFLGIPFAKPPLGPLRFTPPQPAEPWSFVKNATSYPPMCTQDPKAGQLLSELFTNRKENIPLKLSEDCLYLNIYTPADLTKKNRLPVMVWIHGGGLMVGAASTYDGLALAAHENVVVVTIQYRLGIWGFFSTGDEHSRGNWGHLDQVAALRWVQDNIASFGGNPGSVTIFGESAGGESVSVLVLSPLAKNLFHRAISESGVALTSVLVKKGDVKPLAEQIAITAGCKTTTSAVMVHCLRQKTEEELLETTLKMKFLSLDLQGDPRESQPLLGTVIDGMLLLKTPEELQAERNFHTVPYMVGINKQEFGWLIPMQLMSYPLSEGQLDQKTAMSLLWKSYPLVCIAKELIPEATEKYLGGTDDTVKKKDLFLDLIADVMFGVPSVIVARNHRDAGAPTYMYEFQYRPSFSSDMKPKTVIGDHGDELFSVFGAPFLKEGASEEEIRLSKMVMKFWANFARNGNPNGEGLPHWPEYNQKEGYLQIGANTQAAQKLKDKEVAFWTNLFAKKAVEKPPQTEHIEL
In words: CES1 hydrolysis assay. The class given is in vitro ADME. Conditions: for CES1 hydrolysis: 100 μM compound, 37° C. As for the experimental part: CES1 assay was performed at 37° C. in the reaction mixture containing 50 mM Tris/HCl buffer pH 7.5 and 100 μM of the compound. Reaction was started by addition of the CES1 to the final concentration 0.01 μg/mL. 100 μL aliquots were taken after 0.5 min, 3 hrs and 21 hrs of the incubation and the reaction was stopped by mixing with 100 μl of the ice-cold methanol prior to HPLC analysis.
as §1

A further data set deals with genotype 1b HCV replicon. In words: genotype 1b HCV replicon-bearing Huh-7 cells (Table 5). The data set is classed as cell-based. From the text:
In vivo Z4 and Z2 appear to be effectively liver-targeted with a high liver:plasma ratio of drug metabolites. Both prodrugs are readily converted to the triphosphate (TP) metabolite in the liver of mice and monkey producing more TP than GS-7977. […] The in vitro antiviral inactivity of Z4 and Z2 is thought to reflect an inability of Huh-7 replicon cells to metabolize the prodrug moiety.

Another data set is described as follows: Liver TP (Table 5). The data set is classed as in vivo.

As to `CCOc1nc(N)nc2c1ncn2[C@@H]1O[C@@H]2COP(=O)(Oc3ccc(C[C@H](NC(=O)OC)C(=O)OC(C)C)cc3)O[C@H]2[C@@]1(C)F` (some centres unmarked) [Compound 13], the EC50 with HCV genotype 1b replicon is less than 250 nM. Also, the CC50 in data set [1] is more than 50000 nM.

For `CC(C)OC(=O)[C@H](C)N[P@](=O)(OC[C@H]1O[C@@H](n2ccc(=O)[nH]c2=O)[C@](C)(F)[C@@H]1O)Oc1ccccc1` [GS-7977], the “Huh-7 AUC0-72” value with Huh-7 cells is recorded as 63555 pmol * hr/10^6cells. Further, the “hydrolysis by CatA (in words)” value at cathepsin A (CatA) is “hydrolyzed”. This compound displayed a CatA hydrolysis at cathepsin A (CatA) of 100% @ 18 h. The “CatA cleavage efficiency relative to RP diastereoisomer” value at cathepsin A (CatA) (GS-7977 (SP) versus its RP diastereoisomer) is 10 times. Also, in data set [2], the “hydrolysis by CES1 (in words)” value is reported as “hydrolyzed”. In addition, the CES1 hydrolysis in data set [2] (3 h) is 12%/3 h;; in data set [2] (21 h) it was 15%/21 h. The compound further displayed an EC50 in the data set with genotype 1b HCV replicon (Hepatitis C virus) of 250 nM.

Consider `CC(C)OC(=O)[C@H](C)N[P@@](=O)(OC[C@H]1O[C@@H](n2ccc(=O)[nH]c2=O)[C@](C)(F)[C@@H]1O)Oc1ccccc1` [PSI-7976], for which the “Huh-7 AUC0-72” value in the data set on Huh-7 cells is 6527 pmol * hr/10^6cells. In addition, on cathepsin A (CatA), the CatA hydrolysis was found to be 10% @ 18 h. For the same compound, the “hydrolysis by CES1 (in words)” value in data set [2] is “preferentially hydrolyzed”. Further, the CES1 hydrolysis in data set [2] (3 h) was 56%/3 h;; in data set [2] (21 h), 94%/21 h. In the data set on genotype 1b HCV replicon, this compound displayed an EC50 of 2080 nM. Further, in the data set “Liver TP (Table 5)”, the “Liver TP” value came to 310 pmol·h/g.
